# Results: US20130116263A1, “PAK INHIBITORS FOR THE TREATMENT OF CELL PROLIFERATIVE DISORDERS” (AFRAXIS, INC., priority 2011, published 2013)
# Molecular target: PAK4 (Homo sapiens, UniProt O96013)
# Experiment: In vitro PAK inhibition assay (Z'-LYTE, SelectScreen), PAK4
# Type: biochemical
# Details: not given
# Experimental: (§1) Compounds are screened in 1% DMSO (final) in the well. For 10 point titrations, 3-fold serial dilutions are conducted. All Peptide/Kinase Mixtures are diluted to a 2× working concentration in the appropriate Kinase Buffer
# The 2×PAK-4/Ser/Thr 20 mixture is prepared in 50 mM HEPES pH 7.5, 0.01% BRIJ-35, 10 mM MgCl2, 1 mM EGTA. The final 10 μL Kinase Reaction consists of 0.1-0.75 ng PAK-4 and 2 μM Ser/Thr 20 in 50 mM HEPES pH 7.5, 0.01% BRIJ-35, 10 mM MgCl2, 1 mM EGTA. After the 1 hour Kinase Reaction incubation, 5 μL of a 1:256 dilution of Development Reagent A is added.
# (§2) 1. Add the following solutions to a well in a 384-well plate: • 2.5 μL of 4× Test Compound OR (100 nL 100× Test Compound plus 2.4 μL kinase buffer) • 5 μL of 2× Peptide/Kinase (PAK) Mixture • 2.5 μL of 4×ATP Solution
# (§3) 3. Incubate the PAK Kinase Reaction at room temperature for 60-minutes
# (§4) 4. Add 5 μL of Development Reagent Solution to each well
# (§5) 6. Incubate the Development Reaction for 60-minutes
# (§6) 7. Determine the fluorescence using a fluorescence plate reader
# SelectScreen® Kinase Profiling Service uses XLfit from IDBS. The dose response curve is curve fit to model number 205 (sigmoidal dose-response model).
# The table below provides specifications and data around each kinase. The representative IC50 value with a known inhibitor for each kinase was determined at the ATP bin nearest to the ATP Km app.
# Chain of PAK4 (O96013 whole entry): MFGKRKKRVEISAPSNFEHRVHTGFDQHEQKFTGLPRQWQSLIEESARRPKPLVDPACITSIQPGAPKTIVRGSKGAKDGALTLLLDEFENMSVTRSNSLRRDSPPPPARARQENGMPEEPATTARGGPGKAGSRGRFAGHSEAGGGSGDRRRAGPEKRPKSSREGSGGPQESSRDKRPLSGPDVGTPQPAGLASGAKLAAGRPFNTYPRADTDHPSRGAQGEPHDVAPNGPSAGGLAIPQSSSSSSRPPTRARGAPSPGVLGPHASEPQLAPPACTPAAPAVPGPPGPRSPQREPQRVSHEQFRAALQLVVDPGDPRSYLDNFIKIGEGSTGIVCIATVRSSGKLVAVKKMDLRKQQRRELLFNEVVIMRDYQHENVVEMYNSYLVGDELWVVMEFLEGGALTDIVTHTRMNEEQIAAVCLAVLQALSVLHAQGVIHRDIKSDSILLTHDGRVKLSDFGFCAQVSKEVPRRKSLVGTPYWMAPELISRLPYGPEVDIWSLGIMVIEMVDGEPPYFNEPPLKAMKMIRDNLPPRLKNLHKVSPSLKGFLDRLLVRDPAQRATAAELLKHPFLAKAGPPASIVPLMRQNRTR
row,Compound,IC50 [nM]
1,Cc1nccnc1-c1ccc(-c2cc3cnc(NC4CCOCC4)nc3n(Cc3ccccc3C(F)(F)F)c2=O)c(Cl)c1 [Example 21],> 5000
2,CCn1c(=O)c(-c2cc(C)c(-c3cncc(C)n3)cc2Cl)cc2cnc(N[C@@H]3CCOC3)nc21 [Example 71],> 5000
3,Cc1cncc(-c2ccc(-c3cc4cnc(N[C@@H]5CCOC5)nc4n(CCCN)c3=O)c(Cl)c2)n1 [Example 97],> 5000
4,Cc1cncc(-c2ccc(-c3cc4cnc(N[C@@H]5CCOC5)nc4n(CCN4CCCC4)c3=O)c(Cl)c2)n1 [Example 104],> 5000
5,Cc1cncc(-c2ccc(-c3cc4cnc(NC5CC5)nc4n(CCN)c3=O)c(Cl)c2)n1 [Example 111],> 5000
6,CCn1c(=O)c(-c2ccc(-c3cncc(C)n3)cc2Cl)cc2cnc(NC3C[C@@H](C)O[C@@H](C)C3)nc21 (some centres unmarked) [Example 37],> 5000
7,CCn1c(=O)c(-c2ccc(-c3cccnc3)cc2Cl)cc2cnc(N[C@@H]3CCOC3)nc21 [Example 51],> 5000
8,CCn1c(=O)c(-c2ccc(-c3cccnc3F)cc2Cl)cc2cnc(NC3CCOC3)nc21 (centres unmarked) [Example 39],> 5000
9,CCn1c(=O)c(-c2ccc(-c3cncc(C)n3)cc2Cl)cc2cnc(NCCC3CCN(C)CC3)nc21 [Example 67],> 5000

# Molecular target: PAK3 (Homo sapiens, UniProt O75914)
# Sequence (O75914 1-544 isoform O75914-2): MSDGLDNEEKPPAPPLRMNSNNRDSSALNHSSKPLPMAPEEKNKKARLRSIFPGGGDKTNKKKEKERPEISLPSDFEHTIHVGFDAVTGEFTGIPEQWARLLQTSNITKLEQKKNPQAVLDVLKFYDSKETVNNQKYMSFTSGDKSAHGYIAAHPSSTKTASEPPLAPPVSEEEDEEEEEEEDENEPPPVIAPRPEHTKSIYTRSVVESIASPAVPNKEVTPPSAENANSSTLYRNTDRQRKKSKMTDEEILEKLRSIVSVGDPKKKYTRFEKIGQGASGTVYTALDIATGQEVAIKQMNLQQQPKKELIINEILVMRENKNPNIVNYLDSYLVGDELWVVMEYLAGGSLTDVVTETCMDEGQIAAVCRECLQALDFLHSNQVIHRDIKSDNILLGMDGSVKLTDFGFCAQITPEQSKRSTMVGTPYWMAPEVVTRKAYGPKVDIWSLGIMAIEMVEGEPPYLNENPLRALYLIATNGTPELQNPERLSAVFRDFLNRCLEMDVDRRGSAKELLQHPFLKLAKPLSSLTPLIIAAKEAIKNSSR
# Experiment: In vitro PAK inhibition assay (Z'-LYTE, SelectScreen), PAK3
# Type: biochemical
# Details: PAK3 IC50 (nM)
# Experimental: as §1
# The 2×PAK3/Ser/Thr 20 mixture is prepared in 50 mM HEPES pH 7.5, 0.01% BRIJ-35, 10 mM MgCl2, 1 mM EGTA.
# as §2, §3, §4, §5, §6
# (§7) SelectScreen® Kinase Profiling Service uses XLfit from IDBS.
# (§8) The representative IC50 value with a known inhibitor for each kinase was determined at the ATP bin nearest to the ATP Km app.
row,Compound,IC50 [nM]
1,CCn1c(=O)c(-c2ccc(-c3cncc(C)n3)cc2Cl)cc2cnc(NCCC3CCN(C)CC3)nc21 [Example 67],50 to 500

# Same assay, conditions: read-out: PAK3 IC50
row,Compound,IC50 [nM]
1,Cc1nccnc1-c1ccc(-c2cc3cnc(NC4CCOCC4)nc3n(Cc3ccccc3C(F)(F)F)c2=O)c(Cl)c1 [Example 21],< 50
2,CCn1c(=O)c(-c2cc(C)c(-c3cncc(C)n3)cc2Cl)cc2cnc(N[C@@H]3CCOC3)nc21 [Example 71],50 to 500
3,Cc1cncc(-c2ccc(-c3cc4cnc(N[C@@H]5CCOC5)nc4n(CCCN)c3=O)c(Cl)c2)n1 [Example 97],50 to 500
4,Cc1cncc(-c2ccc(-c3cc4cnc(N[C@@H]5CCOC5)nc4n(CCN4CCCC4)c3=O)c(Cl)c2)n1 [Example 104],500 to 5000
5,Cc1cncc(-c2ccc(-c3cc4cnc(NC5CC5)nc4n(CCN)c3=O)c(Cl)c2)n1 [Example 111],50 to 500
6,CCn1c(=O)c(-c2ccc(-c3cncc(C)n3)cc2Cl)cc2cnc(NC3C[C@@H](C)O[C@@H](C)C3)nc21 (some centres unmarked) [Example 37],50 to 500
7,CCn1c(=O)c(-c2ccc(-c3cccnc3)cc2Cl)cc2cnc(N[C@@H]3CCOC3)nc21 [Example 51],500 to 5000
8,CCn1c(=O)c(-c2ccc(-c3cccnc3F)cc2Cl)cc2cnc(NC3CCOC3)nc21 (centres unmarked) [Example 39],50 to 500
9,CCn1c(=O)c(-c2cc(C)c(-c3noc(C)n3)cc2Cl)cc2cnc(N[C@@H]3CCOC3)nc21 [Example 92],50 to 500

# Molecular target: PAK1 (Homo sapiens, UniProt Q13153)
# Sequence (Q13153 whole entry): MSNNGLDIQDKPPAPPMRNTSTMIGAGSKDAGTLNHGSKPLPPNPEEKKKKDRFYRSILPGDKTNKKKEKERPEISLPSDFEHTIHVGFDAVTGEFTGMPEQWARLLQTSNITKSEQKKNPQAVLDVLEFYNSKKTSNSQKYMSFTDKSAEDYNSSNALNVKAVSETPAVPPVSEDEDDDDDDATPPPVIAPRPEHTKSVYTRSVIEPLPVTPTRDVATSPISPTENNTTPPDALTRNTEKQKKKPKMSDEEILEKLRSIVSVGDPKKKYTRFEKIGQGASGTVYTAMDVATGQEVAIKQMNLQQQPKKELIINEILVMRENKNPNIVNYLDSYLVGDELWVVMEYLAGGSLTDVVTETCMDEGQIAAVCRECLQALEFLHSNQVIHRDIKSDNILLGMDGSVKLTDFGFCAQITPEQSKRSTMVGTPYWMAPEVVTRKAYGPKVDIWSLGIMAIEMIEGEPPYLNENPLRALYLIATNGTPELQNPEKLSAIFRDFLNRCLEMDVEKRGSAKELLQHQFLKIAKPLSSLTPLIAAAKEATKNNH
# Experiment: In vitro PAK inhibition assay (Z'-LYTE, SelectScreen), PAK1
# Type: biochemical
# Details: read-out: PAK1 IC50
# Experimental: as §1
# The 2×PAK1/Ser/Thr 19 mixture is prepared in 50 mM HEPES pH 7.5, 0.01% BRIJ-35, 10 mM MgCl2, 1 mM EGTA.
# as §2, §3, §4, §5, §6, §7, §8
row,Compound,IC50 [nM]
1,Cc1nccnc1-c1ccc(-c2cc3cnc(NC4CCOCC4)nc3n(Cc3ccccc3C(F)(F)F)c2=O)c(Cl)c1 [Example 21],< 50
2,CCn1c(=O)c(-c2cc(C)c(-c3cncc(C)n3)cc2Cl)cc2cnc(N[C@@H]3CCOC3)nc21 [Example 71],< 50
3,Cc1cncc(-c2ccc(-c3cc4cnc(N[C@@H]5CCOC5)nc4n(CCCN)c3=O)c(Cl)c2)n1 [Example 97],50 to 500
4,Cc1cncc(-c2ccc(-c3cc4cnc(N[C@@H]5CCOC5)nc4n(CCN4CCCC4)c3=O)c(Cl)c2)n1 [Example 104],50 to 500
5,Cc1cncc(-c2ccc(-c3cc4cnc(NC5CC5)nc4n(CCN)c3=O)c(Cl)c2)n1 [Example 111],50 to 500
6,CCn1c(=O)c(-c2ccc(-c3cncc(C)n3)cc2Cl)cc2cnc(NC3C[C@@H](C)O[C@@H](C)C3)nc21 (some centres unmarked) [Example 37],< 50
7,CCn1c(=O)c(-c2ccc(-c3cccnc3)cc2Cl)cc2cnc(N[C@@H]3CCOC3)nc21 [Example 51],50 to 500
8,CCn1c(=O)c(-c2ccc(-c3cccnc3F)cc2Cl)cc2cnc(NC3CCOC3)nc21 (centres unmarked) [Example 39],50 to 500

# Molecular target: PAK2 (PAK65) (Homo sapiens, UniProt Q13177)
# Sequence (Q13177 whole entry): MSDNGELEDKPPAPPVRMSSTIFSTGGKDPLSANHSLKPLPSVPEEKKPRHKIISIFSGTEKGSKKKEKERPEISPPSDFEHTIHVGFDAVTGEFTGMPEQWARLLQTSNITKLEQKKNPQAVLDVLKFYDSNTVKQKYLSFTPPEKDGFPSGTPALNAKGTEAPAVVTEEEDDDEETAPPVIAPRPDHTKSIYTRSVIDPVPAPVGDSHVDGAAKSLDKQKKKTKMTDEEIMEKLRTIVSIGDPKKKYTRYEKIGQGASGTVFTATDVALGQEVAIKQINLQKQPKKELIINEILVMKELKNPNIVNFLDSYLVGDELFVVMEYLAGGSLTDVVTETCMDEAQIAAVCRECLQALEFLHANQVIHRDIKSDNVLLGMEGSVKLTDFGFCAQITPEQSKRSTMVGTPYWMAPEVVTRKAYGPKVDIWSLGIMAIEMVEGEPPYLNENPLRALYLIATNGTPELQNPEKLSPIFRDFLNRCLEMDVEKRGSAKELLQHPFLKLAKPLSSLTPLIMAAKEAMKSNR
# Experiment: In vitro PAK inhibition assay (Z'-LYTE, SelectScreen), PAK2
# Type: biochemical
# Details: read-out: PAK2 IC50
# Experimental: as §1
# The 2×PAK2 (PAK65)/Ser/Thr 20 mixture is prepared in 50 mM HEPES pH 7.5, 0.01% BRIJ-35, 10 mM MgCl2, 1 mM EGTA. The final 10 μL Kinase Reaction consists of 0.29-6 ng PAK2 (PAK65) and 2 μM Ser/Thr 20 in 50 mM HEPES pH 7.5, 0.01% BRIJ-35, 10 mM MgCl2, 1 mM EGTA.
# as §2, §3, §4, §5, §6, §7, §8
row,Compound,IC50 [nM]
1,Cc1nccnc1-c1ccc(-c2cc3cnc(NC4CCOCC4)nc3n(Cc3ccccc3C(F)(F)F)c2=O)c(Cl)c1 [Example 21],< 50
2,CCn1c(=O)c(-c2cc(C)c(-c3cncc(C)n3)cc2Cl)cc2cnc(N[C@@H]3CCOC3)nc21 [Example 71],< 50
3,Cc1cncc(-c2ccc(-c3cc4cnc(N[C@@H]5CCOC5)nc4n(CCCN)c3=O)c(Cl)c2)n1 [Example 97],< 50
4,Cc1cncc(-c2ccc(-c3cc4cnc(N[C@@H]5CCOC5)nc4n(CCN4CCCC4)c3=O)c(Cl)c2)n1 [Example 104],50 to 500
5,Cc1cncc(-c2ccc(-c3cc4cnc(NC5CC5)nc4n(CCN)c3=O)c(Cl)c2)n1 [Example 111],50 to 500
6,CCn1c(=O)c(-c2ccc(-c3cncc(C)n3)cc2Cl)cc2cnc(NC3C[C@@H](C)O[C@@H](C)C3)nc21 (some centres unmarked) [Example 37],50 to 500
7,CCn1c(=O)c(-c2ccc(-c3cccnc3)cc2Cl)cc2cnc(N[C@@H]3CCOC3)nc21 [Example 51],50 to 500
8,CCn1c(=O)c(-c2ccc(-c3cccnc3F)cc2Cl)cc2cnc(NC3CCOC3)nc21 (centres unmarked) [Example 39],50 to 500
